One block for each compound: values may come before it.
Legend:
[1] = molecular target: T1, DNA-PK (h) (Homo sapiens, UniProt P78527); test: DNA-PK kinase inhibitory activity (HTRF, Eurofins); format: biochemical; details: ATP: 10 μM
T1 construct: Eurofins Pharma Discovery Service (contract assay)
Protocol: (§1) This experiment was tested at Eurofins Pharma Discovery Service, Reaction Biology Corp. (RBC)
(§2) […] DNA-PK: Mg/ATP; GST-cMyc-p53; EDTA; Ser15 antibody; ATP: 10 μM; biotinylated phosphatidylinositol-3,4,5-triphosphate; GST label GRP1 PH domain; streptavidin and phycocyanin; europium-labelled monoclonal antibody against GST.
DNA-PK (h) was incubated in a determination buffer containing 50 nM GST-cMyc-p53 and Mg/ATP (density as required). The reaction was initiated by adding a mixture of Mg/ATP. After incubating at room temperature for 30 min, a termination solution containing EDTA was added to terminate the reaction. Finally, a detection buffer (containing labeled anti-GST monoclonal antibody and europium-labeled anti-phosphate Ser15 antibody against phosphorylated p53) was added. Then, the board was read in time-resolved fluorescence mode, and a Homogeneous Time Resolved Fluorescence (HTRF) signal was measured according to the formula HTRF=10000×(Em665 nm/Em620 nm).

[2] = molecular target: T2, PI3K (p110σ/p85α) (Homo sapiens, UniProt O00329); test: PI3K (p110σ/p85α) kinase inhibitory activity (HTRF); format: biochemical
T2 construct: Eurofins Pharma Discovery Service (contract assay)

[3] = Pharmacokinetic evaluation in mice, IV and PO; format: in vivo, Balb/c female mice; details: for Tlast / AUC(0-t) / C0 / clearance / half-life / Vd / Cmax / Tmax: mouse plasma; for bioavailability / AUC(0-t) / C0 / clearance / half-life / Vd / Cmax / Tmax: female, Balb/c; for bioavailability: plasma, mouse; for Vd: read-out: Vdss; for Tmax: read-out: Tmax
Protocol: The tested compound was mixed with 10% DMSO/50% PEG400/40% water, vortexized and ultrasonic to prepare 0.2 mg/mL or 0.4 mg/ml, approximately clarified solution, which was filtered by a microporous membrane and then standby. Balb/c female mice of 18-20 g were selected and given the candidate compound solution intravenously at a dose of 1 or 2 mg/kg. The tested compound was mixed with 10% DMSO/50% PEG400/40% water, vortexized and ultrasonic to prepare 0.2 mg/mL or 1 mg/mL approximately clarified solution, which was filtered by a microporous membrane and then standby. Balb/c female mice of 18 to 20 g were selected and given orally the candidate compound solution at a dose of 2 or 10 mg/kg. Whole blood was collected for a certain period of time, and plasma was prepared. Drug concentration was analyzed by LC-MS/MS method, and pharmacokinetic parameters were calculated by Phoenix WinNonlin software (US Pharsight company).
C0: instantaneous concentration required after intravenous injection; Cmax: the highest blood concentration after administration; Tmax: time required to reach peak concentration after administration; T1/2: the time required for blood drug concentration to decrease by half; Vdss: apparent volume of distribution, which refers to the ratio constant of drug dosage to blood concentration when a drug reaches dynamic equilibrium in vivo. Cl: clearance rate, referring to drug apparent distribution volume number removed from the body per unit time; Tlast: time of last detection point: AUC0-last: an area under a drug duration curve, referring to an area surrounded by the blood drug concentration curve on the time axis; Bioavailability: a measure of the rate and extent of drug absorption into the blood circulation, which was an important index to evaluate drug absorption degree.

[4] = molecular target: T3, PI3K (p110α/p85α) (Homo sapiens, UniProt P42336); test: PI3K (p110α/p85α) kinase inhibitory activity (HTRF); format: biochemical
T3 construct: Eurofins Pharma Discovery Service (contract assay)
Protocol: as §1, §2
PI3K (p110α/p85α) was incubated in a determination buffer containing phosphatidylinositol 4,5-diphosphate and Mg/ATP (density as required). The reaction was initiated by adding an ATP solution. After incubating at room temperature for 30 min, a termination solution containing EDTA and biotinylated phosphatidylinositol-3,4,5-triphosphate was added to terminate the reaction. Finally, a detection buffer (containing labeled anti-GST monoclonal antibody, PH domain of GRP1 with GST label and streptavidin and phycyanin and […]) was added. Then, the board was read in time-resolved fluorescence mode, and an HTRF signal was measured according to the formula HTRF=10000×(Em665 nm/Em620 nm).

[5] = system: human small cell lung cancer NCI-H69 xenograft tumor model; test: NCI-H69 xenograft, mono and combination with etoposide, 24-day experiment (Table 8); format: in vivo, BALB/c nude mice; details: etoposide 10 mg/kg alone
Protocol: Experiment example 3: in vivo pharmacodynamics of human small cell lung cancer NCI-H69 cell subcutaneous xenograft tumor BALB/c nude mouse model:
Experimental animals: Female BALB/c nude mice, 6-8 weeks old, weighing 15-22 grams; supplier: Shanghai Linchang Biotechnology Co., LTD. (Linchang, Shanghai)
Human small cell lung cancer NCI-H69 cells (ATCC, item number: HTB-119 and ECACC-95111733) were cultured in vitro in a culture condition of RPMI-1640 medium with 10% fetal bovine serum, 100 U/mL penicillin and 100 μg/mL streptomycin, incubated at 37° C. and 5% CO2. Conventional passage was carried out twice a week. When cell saturation was 80%-90% and the number reaches the requirement, cells were collected, counted and inoculated.
0.2 mL (10×10^6) NCI-H69 cells (with matrix glue, and volume ratio of 1:1) were subcutaneously inoculated into a right back of each mouse, and group administration was initiated when the average tumor volume reaches about 110-120 mm^3.
The tested compound was prepared as a 5 mg/mL clarified solution with 10% DMSO+50% polyethylene glycol 400+40% water as the solvent.
The experimental indicators refers to study whether tumor growth was inhibited, delayed, or cured. Tumor diameter was measured twice a week with a vernier caliper. The calculation formula of the tumor volume was V=0.5a×b^2, and a and b represent the long diameter and short diameter of the tumor, respectively.
The antitumor efficacy of the compound was evaluated by TGI (%) or relative tumor proliferation rate T/C (%). TGI (%) reflects the tumor growth inhibition rate. The calculation of TGI (%): TGI (%)=[1−(average tumor volume at the end of administration of a certain treatment group−average tumor volume at the beginning of administration of the treatment group)/(average tumor volume at the end of treatment in solvent control group−average tumor volume at the beginning of treatment in solvent control group)]×control group.
Relative tumor proliferation rate T/C (%): the calculation formula was as follows: T/C %=[…] TRTV/CRTV group (TRTV: treatment group RTV; CRTV: negative control group RTV). According to results of tumor measurement, Relative Tumor Volume (RTV) was calculated by the formula RTV=Vt/V0, where V0 was the average tumor volume measured in group administration (i.e., d0), and Vt was the average tumor volume measured in a certain single measurement. TRTV and CRTV collect data on the same day.
Statistic analysis includes an average value and a standard error (SEM) of tumor volume at each time point for each group. […] If there was no significant difference in F value, Dunnet (2-sided) method was applied to analysis. All data were analyzed using SPSS 17.0. P<0.05 was considered as having a significant difference.

T2 sequence (O00329 whole entry): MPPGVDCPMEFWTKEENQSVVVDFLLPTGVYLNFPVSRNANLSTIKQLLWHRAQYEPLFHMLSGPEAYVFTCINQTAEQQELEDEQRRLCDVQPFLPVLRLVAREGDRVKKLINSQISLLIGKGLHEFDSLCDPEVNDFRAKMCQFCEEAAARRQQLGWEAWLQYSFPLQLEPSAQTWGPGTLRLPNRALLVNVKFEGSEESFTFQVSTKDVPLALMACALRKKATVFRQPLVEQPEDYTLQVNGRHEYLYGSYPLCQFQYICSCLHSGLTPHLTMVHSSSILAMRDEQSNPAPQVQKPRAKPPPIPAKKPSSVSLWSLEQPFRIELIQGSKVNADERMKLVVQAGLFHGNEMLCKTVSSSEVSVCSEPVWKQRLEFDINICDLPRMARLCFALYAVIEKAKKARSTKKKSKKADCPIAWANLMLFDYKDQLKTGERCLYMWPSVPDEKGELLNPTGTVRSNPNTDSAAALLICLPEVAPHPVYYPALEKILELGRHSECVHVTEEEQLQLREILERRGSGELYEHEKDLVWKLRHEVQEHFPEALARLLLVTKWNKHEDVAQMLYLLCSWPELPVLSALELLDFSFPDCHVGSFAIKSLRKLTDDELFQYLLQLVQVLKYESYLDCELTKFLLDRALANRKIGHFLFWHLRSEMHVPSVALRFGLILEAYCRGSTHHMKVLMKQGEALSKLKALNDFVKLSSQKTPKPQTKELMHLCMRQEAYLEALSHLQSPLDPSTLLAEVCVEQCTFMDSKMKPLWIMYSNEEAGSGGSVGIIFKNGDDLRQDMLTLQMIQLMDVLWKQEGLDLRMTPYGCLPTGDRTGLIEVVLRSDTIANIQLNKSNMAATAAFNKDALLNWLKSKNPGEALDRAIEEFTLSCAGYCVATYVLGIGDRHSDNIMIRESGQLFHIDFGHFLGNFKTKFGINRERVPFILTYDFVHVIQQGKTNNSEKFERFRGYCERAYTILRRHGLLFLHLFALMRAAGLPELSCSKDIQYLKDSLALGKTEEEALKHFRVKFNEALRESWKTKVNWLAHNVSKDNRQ
T2 sequence (P27986 whole entry partner): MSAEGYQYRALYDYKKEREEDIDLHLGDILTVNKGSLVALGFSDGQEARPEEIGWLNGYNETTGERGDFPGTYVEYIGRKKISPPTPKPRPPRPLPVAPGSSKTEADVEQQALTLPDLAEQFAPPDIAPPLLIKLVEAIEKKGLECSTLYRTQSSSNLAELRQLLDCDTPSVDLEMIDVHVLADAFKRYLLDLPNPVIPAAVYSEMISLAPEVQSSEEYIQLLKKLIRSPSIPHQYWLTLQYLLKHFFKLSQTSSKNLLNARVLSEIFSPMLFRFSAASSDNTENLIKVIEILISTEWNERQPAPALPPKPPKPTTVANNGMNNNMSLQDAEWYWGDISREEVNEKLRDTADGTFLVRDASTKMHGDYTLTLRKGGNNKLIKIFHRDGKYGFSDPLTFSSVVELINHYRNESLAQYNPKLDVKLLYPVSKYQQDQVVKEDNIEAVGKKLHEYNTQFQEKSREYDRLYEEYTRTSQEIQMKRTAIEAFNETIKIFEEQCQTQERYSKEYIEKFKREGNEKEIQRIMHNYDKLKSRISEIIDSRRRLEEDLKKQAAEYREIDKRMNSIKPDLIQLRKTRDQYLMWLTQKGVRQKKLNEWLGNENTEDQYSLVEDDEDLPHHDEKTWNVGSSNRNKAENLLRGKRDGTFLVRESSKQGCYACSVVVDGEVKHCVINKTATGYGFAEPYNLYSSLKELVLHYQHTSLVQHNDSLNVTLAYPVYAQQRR
T3 sequence (P42336 whole entry, species assumed): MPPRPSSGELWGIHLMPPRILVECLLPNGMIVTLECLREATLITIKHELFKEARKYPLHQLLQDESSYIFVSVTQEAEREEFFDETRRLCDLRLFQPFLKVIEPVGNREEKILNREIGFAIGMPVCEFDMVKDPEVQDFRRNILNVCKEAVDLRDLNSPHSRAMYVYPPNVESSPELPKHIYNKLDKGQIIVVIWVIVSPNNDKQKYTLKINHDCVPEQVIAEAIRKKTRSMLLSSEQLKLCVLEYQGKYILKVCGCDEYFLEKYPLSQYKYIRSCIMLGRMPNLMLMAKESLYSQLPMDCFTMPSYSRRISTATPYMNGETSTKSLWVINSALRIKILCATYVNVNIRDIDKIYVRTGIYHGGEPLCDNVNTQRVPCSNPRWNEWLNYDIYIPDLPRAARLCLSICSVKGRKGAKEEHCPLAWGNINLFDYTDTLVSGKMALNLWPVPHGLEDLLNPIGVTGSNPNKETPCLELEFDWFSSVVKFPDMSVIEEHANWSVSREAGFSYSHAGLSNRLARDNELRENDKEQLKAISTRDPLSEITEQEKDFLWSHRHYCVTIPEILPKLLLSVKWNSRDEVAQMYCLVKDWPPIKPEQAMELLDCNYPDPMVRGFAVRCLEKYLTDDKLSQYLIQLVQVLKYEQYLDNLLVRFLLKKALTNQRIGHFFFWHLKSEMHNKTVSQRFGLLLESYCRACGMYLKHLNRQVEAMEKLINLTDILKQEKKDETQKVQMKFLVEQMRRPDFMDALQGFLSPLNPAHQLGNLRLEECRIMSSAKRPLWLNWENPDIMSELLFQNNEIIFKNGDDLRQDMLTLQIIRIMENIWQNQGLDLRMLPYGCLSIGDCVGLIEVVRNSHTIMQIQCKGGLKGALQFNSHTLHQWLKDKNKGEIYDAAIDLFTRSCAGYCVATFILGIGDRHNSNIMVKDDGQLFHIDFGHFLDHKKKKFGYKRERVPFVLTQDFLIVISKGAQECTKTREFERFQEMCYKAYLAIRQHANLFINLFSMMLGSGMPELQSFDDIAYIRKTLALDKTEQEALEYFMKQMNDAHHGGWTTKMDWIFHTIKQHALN
T3 sequence (P27986 whole entry partner, species assumed): as the sequence (P27986 whole entry partner) above

SMILES: COc1ccc(C(O)c2cc(-c3cnnc4c(F)c(N5CCOCC5)cc(F)c34)c(F)cc2Cl)nn1 (single isomer, unassigned) [Embodiment 20]
- IC50 [1]: 136 nM

SMILES: COc1ccc(C(O)c2cc(-c3ccnc4c(F)c(N5CCOCC5)cc(F)c34)c(F)cc2Cl)nn1 (single isomer, unassigned) [Embodiment 22]
- IC50 [1]: 0.8 nM
- IC50 [2]: 47 nM
- Tlast ([3]; IV(1 mg/kg)): 8.00 h
- Tlast ([3]; PO(2 mg/kg)): 8.00 h
- bioavailability ([3]; PO(2 mg/kg)): 50%
- AUC(0-t) ([3]; IV(1 mg/kg)): 1.98 µM·h
- C0 ([3]; IV(1 mg/kg)): 1380 nM
- clearance ([3]; IV(1 mg/kg)): 15.4 mL/min/kg
- half-life ([3]; IV(1 mg/kg)): 1.89 h
- Vd ([3]; IV(1 mg/kg)): 2.32 L/kg
- AUC(0-t) ([3]; PO(2 mg/kg)): 1.98 µM·h
- Cmax ([3]; PO(2 mg/kg)): 456 nM
- half-life ([3]; PO(2 mg/kg)): 6.25 h
- Tmax ([3]; PO(2 mg/kg)): 1 h
- IC50 [4]: 43 nM

SMILES: COc1ccc(C(O)c2cc(-c3cnnc4cc(N5CCOCC5)ccc34)c(F)cc2Cl)nn1 (centres unmarked) [Embodiment 3]
- IC50 [1]: 3.5 nM
- IC50 [2]: 132 nM
- Tlast ([3]; IV(1 mg/kg)): 8.00 h
- Tlast ([3]; PO(2 mg/kg)): 8.00 h
- bioavailability ([3]; PO(2 mg/kg)): 48.2%
- AUC(0-t) ([3]; IV(1 mg/kg)): 1.85 µM·h
- C0 ([3]; IV(1 mg/kg)): 1260 nM
- clearance ([3]; IV(1 mg/kg)): 17.9 mL/min/kg
- half-life ([3]; IV(1 mg/kg)): 1.27 h
- Vd ([3]; IV(1 mg/kg)): 1.42 L/kg
- AUC(0-t) ([3]; PO(2 mg/kg)): 1.79 µM·h
- Cmax ([3]; PO(2 mg/kg)): 459 nM
- half-life ([3]; PO(2 mg/kg)): 2.83 h
- Tmax ([3]; PO(2 mg/kg)): 0.5 h
- IC50 [4]: 509 nM

SMILES: COc1ccc(C(O)c2cc(-c3cc(N)nc4cc(N5CCOCC5)ccc34)c(F)cc2Cl)nn1 (centres unmarked) [Embodiment 11]
- IC50 [1]: 4.7 nM

SMILES: COc1cc([C@@H]2c3cc4c(cc3[C@@H](O[C@@H]3O[C@@H]5CO[C@@H](C)O[C@H]5[C@H](O)[C@H]3O)[C@H]3COC(=O)[C@H]23)OCO4)cc(OC)c1O [Etoposide, etoposide, reference compound]
- RTV (24th day) [5]: 6.09 ± 0.85
- T/C (%) (24th day) [5]: 75.6%
- TGI (%) (24th day) [5]: 33.4%
- Tumor volume (mm^3) (0th day) ([5]; average ± SEM, n = 9): 114 ± 9 mm^3
- Tumor volume (mm^3) (24th day) ([5]; average ± SEM, n = 9): 654 + 48 mm^3

Further compounds by falling IC50 [1], results first:

- IC50 [1]: 13100 nM
SMILES: COc1ccc(C(O)c2cc(-c3cc(OC)nc4cc(N5CCOCC5)ccc34)c(F)cc2Cl)nn1 (single isomer, unassigned) [Embodiment 25]

- IC50 [1]: 141 nM
SMILES: COc1ccc(C(O)c2cc(-c3cc(N)nc4cc(N5CCOCC5)cc(F)c34)c(F)cc2Cl)nn1 (centres unmarked) [Embodiment 13]

- IC50 [1]: 76 nM
SMILES: COc1ccc(C(O)c2cc(-c3ccnc4c(F)c(N5CCOCC5)cc(F)c34)c(F)cc2Cl)nn1 (single isomer, unassigned) [Embodiment 21]

- IC50 [1]: 15 nM
SMILES: Cc1nccnc1C(O)c1cc(-c2cnnc3c(F)c(N4CCOCC4)cc(F)c23)c(F)cc1Cl (centres unmarked) [Embodiment 17]

- IC50 [1]: 8.7 nM
SMILES: Cc1nccnc1C(O)c1cc(-c2ccnc3c(F)c(N4CCOCC4)cc(F)c23)c(F)cc1Cl (centres unmarked) [Embodiment 23]

- IC50 [1]: 5.7 nM
SMILES: Cc1nccnc1C(O)c1cc(-c2ccnc3c(F)c(N4CCOCC4)cc(F)c23)c(F)cc1Cl (single isomer, unassigned) [Embodiment 24]

- IC50 [1]: 1.5 nM
SMILES: COc1ccc(C(O)c2cc(-c3cnnc4c(F)c(N5CCOCC5)ccc34)c(F)cc2Cl)nn1 (centres unmarked) [Embodiment 7]
